From patent publication US11040052B2, “Methods and pharmaceutical compositions for modulating autophagy in a subject in need thereof” (INSERM (INSTITUT NATIONAL DE LA SANTE ET DE LA RECHERCHE …, priority 2013, dated 2021)
Entries after “also recorded” stand apart in the source; their conditions may differ.

Assays:
[1] = tested on: cytoplasts of U2OS cells stably expressing GFP-LC3; assay: Autophagic flux in cytoplasts (enucleated GFP-LC3 cells); assay type: cell-based, human; settings: presence of BafA1, compared with nucleated control cells
Method: U2OS cells stably expressing GFP-LC3 were trypsinized and incubated in 3 ml of complete medium supplemented with […] cytochalasin B for 45 min at 37° C. This cell suspension was layered onto a discontinuous Ficoll density gradient (3 mL of 55%, 1 mL of 90%, and 3 mL of 100% Ficoll-Paques; GE Healthcare) in complete medium containing […] cytochalasin B. Gradients were prepared in ultracentrifuge tubes and pre-equilibrated at 37° C. in a CO2 incubator overnight. Gradients containing cell suspensions were centrifugated in a prewarmed rotor (SW41; Beck-man Coulter) at 30,000 g for 30 min at 32° C. The cytoplast-enriched fraction was collected from the interface between 55 and 90% Ficoll layers, washed in complete medium, and incubated for 4 h at 37° C. before treatments.

[2] = tested on: U2OS cells stably expressing GFP-LC3; assay: Autophagy in cultured cells: GFP-LC3 puncta formation and LC3 lipidation with or without bafilomycin A1; assay type: cell-based, human; settings: for autophagic flux (GFP-LC3 puncta formation, LC3 lipidation): cells kept in rich medium, presence and absence of BafA1; for abolition of the effects of AcCoA-replenishing agents on starvation-induced protein deacetylation and autophagy: starved cells plus DCA, DMKG or KIC; for starvation-induced autophagy (GFP-LC3 puncta, LC3 lipidation, autophagic flux): nutrient-depleted (starved) cells in vitro
Method: U2OS, HeLa or H4 cells stably expressing GFP-LC3 were seeded in 96-well imaging plates (BD Falcon, Sparks, USA) 24 h before stimulation. Cells were treated with the indicated agents for 4 h. […] Images were analyzed for the presence of GFP-LC3 puncta in the cytoplasm by means of the BD Attovision software (BD Imaging Systems). Cell surfaces were segmented and divided into cytoplasmic and nuclear regions according to manufacturer standard proceedings. RB 2×2 and Marr-Hildreth algorithms were used to recognize cytoplasmic GFP-LC3 positive dots. Statistical analyses were implemented on the R software (http://www.r-project.org/). For quantitative analyses of protein acetylation, cell surfaces were segmented into cytoplasm and nuclei regions, and staining intensity of each individual cell was measured for statistical analysis.
Membranes were then sliced in different parts according to the molecular weight of the protein of interest to allow simultaneous detection of different antigens within the same experiment. Unspecific binding sites were saturated by incubating membranes for 1 h in 0.05% Tween 20 (v:v in TBS) supplemented with 5% non-fat powdered milk (w:v in TBS), followed by the overnight incubation with primary antibodies specific for acetylated-lysine, LC3, phospho-AMPK (Thr172), AMPK, phospho-ribosomal protein S6 kinase (Thr421/Ser424), ribosomal protein S6 kinase, or STQM/p62 (Santa Cruz Biotechnology). Development was performed with appropriate horseradish peroxidase (HRP)-labeled secondary antibodies (Southern Biotech, Birmingham, USA) plus the SuperSignal West Pico chemoluminescent substrate (Thermo Scientific-Pierce). An anti-glyceraldehyde-3-phosphate dehydrogenase antibody (Chemicon International, Temecula, USA) was used to control equal loading of lanes.
For immunoblotting, protein extracts obtained by cellular lysis via RIPA buffer were run on 4-12% Bis-Tris acrylamide (Invitrogen) and electrotransferred to […] PVDF membranes (Biorad, USA). Unspecific binding sites were saturated by incubating membranes for 1 h in 0.05% Tween 20 (v:v in TBS) supplemented with 5% non-fat powdered milk (w:v in TBS), followed by an overnight incubation with primary antibodies specific for, LC3, phospho-AMPK (Thr172), AMPK, phosphor-ACC (Ser79), ACC, phospho-ribosomal protein S6 kinase (Thr421/Ser424), ribosomal protein S6 kinase, or SQSTM/p62 (Abnova). Membranes were opportunely cut in order to allow simultaneous detection of different molecular weight proteins. Development was performed with horseradish peroxidase (HRP)-labeled secondary antibodies (Southern Biotech, Birmingham, USA) plus the SuperSignal West Pico chemo luminescent substrate (Thermo Scientific-Pierce). An anti-glyceraldehyde-3-phosphate dehydrogenase antibody (Abcam) and anti-Actin antibody (Abcam) were used to ensure equal loading of lanes. Quantification was performed by densitometry by means of Image J software.
U2OS and H4 cells stably expressing GFP-LC3 were seeded in 96-well or 384-well imaging plates (BD Falcon, Sparks, USA). 24 h before stimulation, ells were treated with the indicated agents for 6 hours in absence of lysososomal ATPase inhibitors and for 3 hours in presence of Bafilomycin A1. […] Images were analyzed for the detection of GFP-LC3 puncta in the cytoplasm by means of the BD Attovision software (BD Imaging Systems. Cellular regions of interest, cytoplasm and nucleus, were defined and segmented according to standard proceedings. RB 2×2 and Marr-Hildreth algorithms were employed to allow the detection of GFP LC3 puncta. Statistical analyses were conducted using the R and Prism softwares (http://www.r-project.org/). For quantitative analyses of protein acetylation, cell surfaces were segmented intocytoplasmic and nucleic regions, and staining intensity of each individual cell was measured for statistical analysis.

cellular ATP levels = assay: Cellular ATP levels; assay type: cell-based
EP300 = assay: Acetylation of EP300 K1499 in starved cells; assay type: cell-based; settings: nutrient-free conditions
[3] = tested on: turnover of long-lived proteins; assay: Turnover of long-lived proteins; assay type: cell-based, human; settings: for starvation-induced turnover of long-lived proteins: starved cells

Compound | autophagic flux in cytoplasts [1] | autophagic flux (GFP-LC3 puncta formation, LC3 lipidation) [2] | abolition of the effects of AcCoA-replenishing agents on starvation-induced protein deacetylation and autophagy [2] | cellular ATP levels in starved cells (cellular ATP levels) | starvation-induced autophagy (GFP-LC3 puncta, LC3 lipidation, autophagic flux) [2] | starvation-induced deacetylation of the K1499 residue in EP300 (EP300) | other results
O=C(O)c1cccc(C(=O)O)c1C(=O)O [BTC, 1,2,3-benzenetricarboxylate] | stimulated autophagy in cytoplasts as efficiently as in nucleated control cells; also recorded: stimulated autophagic flux in cytoplasts as efficiently as in nucleated control cells | increased autophagic flux; also recorded: induced the triad | cancelled the inhibitory effects; also recorded: abolished both the protein hyperacetylation and autophagy suppression |  |  |  | 
COC(=O)CCC(=O)C(=O)OC [DMKG, dimethyl-α-ketoglutarate] |  |  |  | induced a decrease in cellular ATP | abolished starvation-induced autophagy; also recorded: low autophagy | could be avoided | 
O=C(O)CC(O)(C(=O)O)C(O)C(=O)O (stereo not drawn) [HC, hydroxycitrate] | stimulated autophagy in cytoplasts as efficiently as in nucleated control cells; also recorded: stimulated autophagic flux in cytoplasts as efficiently as in nucleated control cells | increased autophagic flux; also recorded: induce autophagic flux; also recorded: strongly stimulated autophagy both in vitro and in vivo; also recorded: stimulated autophagic flux in cultured cancer cells | cancelled the inhibitory effects; also recorded: abolished both the protein hyperacetylation and autophagy suppression |  |  |  | 
CC(C)CC(=O)C(=O)O [KIC, ketoisocaproic acid] |  |  |  | induced a decrease in cellular ATP | inhibition of starvation induced autophagy; also recorded: inhibited the starvation-induced increase in autophagic flux; also recorded: more efficient than leucine in suppressing autophagy | could be avoided | starvation-induced turnover of long-lived proteins [3]: inhibited the starvation-induced increase in autophagic flux and turnover of long-lived proteins
O=C(O)CCCCC1CCSS1 (stereo not drawn) [LA, lipoic acid] |  |  |  | induced a decrease in cellular ATP | abolished starvation-induced autophagy; also recorded: blunted starvation-induced mTORC1 inhibition, AMPK activation and autophagy flux | could be avoided | starvation-induced turnover of long-lived proteins [3]: blunted
N#CC(=Cc1cn(-c2ccccc2)c2ccccc12)C(=O)O [UK5099, 2-Cyano-3-(1-phenyl-1H-indol-3-yl)-2-propenoic acid] | stimulated autophagy in cytoplasts as efficiently as in nucleated control cells; also recorded: stimulated autophagic flux in cytoplasts as efficiently as in nucleated control cells | increased autophagic flux; also recorded: induction of GFP-LC3 puncta and lipidation of endogenous LC3-I to LC3-II; also recorded: induction of GFP-LC3 puncta, and lipidation of endogenous LC3-I to LC3-II |  |  |  |  | autophagy-dependent turnover of long-lived proteins ([3]; cells in rich medium): increased the autophagy-dependent turnover of long-lived proteins; cellular ATP levels (cellular ATP levels; cells in rich medium): without reducing ATP
CC1=NN(c2ccc(C(=O)O)cc2)C(=O)/C1=C\c1ccc(-c2cc(C)c(C)cc2[N+](=O)[O-])o1 [c646] |  | induced autophagy both in vitro, in cultured cells, and in vivo, in mice | precluded the inhibitory effect of AcCoA-replenishing agents on starvation-induced autophagy |  |  |  | 
CC(C)C[C@H](N)C(=O)O [leucine] |  |  |  |  | suppression of autophagy |  | 
